One data set deals with A549. Kind of data set: Antiproliferative activity against human A549 cells after 72 hrs by MTT assay. Type of data set: functional, cell-based. Conditions: A549, 72 h. (Tetrazolium dyes change colour on reduction, which living cells bring about.)
The test system of data set [1] is HT-29. Kind of data set: Antiproliferative activity against human HT-29 cells after 72 hrs by MTT assay. Type of data set: functional, cell-based. The conditions noted are these: HT-29, 72 h.
Another data set concerns MDA-MB-231. Kind of data set: Antiproliferative activity against human MDA-MB-231 cells after 72 hrs by MTT assay. Type of data set: functional, cell-based. The conditions noted are these: MDA-MB-231, 72 h.
The subject of another data set is A549/CDDP. Kind of data set: Antiproliferative activity against human A549/CDDP cells after 72 hrs by MTT assay. The class given is functional, cell-based.
A further data set has as its system FHC. Kind of data set: Cytotoxicity against human FHC cells after 72 hrs by MTT assay. The class given is cell-based.
A short description of data set [2]: Selectivity index, ratio of IC50 for human FHC cells to IC50 for human HT-29 cells. The class given is toxicity. The conditions noted are these: FHC cells and HT-29 cells, read-out: Ratio IC50.
For a further data set, the system named is MCF7. Kind of data set: Antiproliferative activity against human MCF7 cells after 72 hrs by MTT assay. The conditions noted are these: MCF7, 72 h. The class given is functional, cell-based.
Data set [3] is described as follows: Antiproliferative activity against human MCF7/DX cells after 72 hrs by MTT assay. Type of data set: functional, cell-based.
Data set [4] has as its system HT-29. Kind of data set: Induction of apoptosis in human HT-29 cells assessed as late apoptotic cells at 5 ug/mL after 72 hrs by Annexin V-FITC/propidium iodide staining-based flow cytometric analysis (reference value: 0.1%). Type of data set: functional. (Flow cytometry measures light scatter and fluorescence of single cells or particles in a stream.)
Data set [5] concerns HT-29. Description: Antimigratory activity against human HT-29 cells at 3.33 ug/mL after 48 to 72 hrs by wound healing assay. The class given is functional, cell-based.
Data set [6] relates to HT-29. Kind of data set: Cytotoxicity against human HT-29 cells assessed as increase in dead cells at 10 ug/mL up to 36 hrs by yoyo-1 dye-based fluorescence assay. The class given is functional, cell-based.
Data set [7] deals with HT-29. Description: Antiproliferative activity against human HT-29 cells at 3.33 ug/ml after 36 to 72 hrs by phase contrast microscopy. Type of data set: functional, cell-based.
Data set [8] concerns HT-29. Description: Induction of apoptosis in human HT-29 cells assessed as early apoptotic cells at 5 ug/mL after 72 hrs by Annexin V-FITC/propidium iodide staining-based flow cytometric analysis (reference value: 0%). The class given is functional.
Data set [9] deals with HT-29. Description: Antiproliferative activity against human HT-29 cells at 10 ug/ml after 72 hrs by IncuCyte live-cell imaging assay. Type of data set: functional, cell-based.

pIC50: −log10 of the molar value. Active and inactive are the calls of the source. No cut-off for these calls is given here.

In the case of `COc1cc2c(Oc3c(F)cc(NC(=O)NN4C(=O)CSC4c4c(F)cccc4F)cc3F)ccnc2cc1OCCCN1CCc2sccc2C1` (stereo not given), the pIC50 (in general, the IC50 on a negative log10 scale, so that one unit is a factor of ten) in the data set on A549 was less than 4.70; with HT-29 [1], 5.85.

For `COc1cc2c(Oc3c(F)cc(NC(=O)NN4C(=O)C(C)(C)SC4c4c(F)cccc4F)cc3F)ccnc2cc1OCCCN1CCCC1` (stereo not given), the pIC50 with A549 is 5.84; in the data set with HT-29 [1] it was 6.02.

For the compound `COc1cc2c(Oc3c(F)cc(NC(=O)NN4C(=O)CCSC4c4c(F)cccc4F)cc3F)ccnc2cc1OCCCN1CCc2sccc2C1` (stereo not given), the pIC50 in the data set with A549 was less than 4.70; in the data set on HT-29 [1], 5.88.

Take `CCN1CCN(CCOc2cc3nccc(Oc4c(F)cc(NC(=O)NN5C(=O)CSC5c5c(F)cccc5F)cc4F)c3cc2OC)CC1` (stereo not given): the pIC50 with A549 is 5.82; with MDA-MB-231, 5.23; in the data set with HT-29 [1], 6.46.

In the case of `COc1cc2c(Oc3c(F)cc(NC(=O)NN4C(=O)CSC4c4c(F)cccc4F)cc3F)ccnc2cc1OCCCN1C[C@H]2CCCC[C@H]2C1` (stereo not given in full), the pIC50 in the data set on A549 is 5.71; in the data set with HT-29 [1], 6.33.

In the case of `COc1cc2c(Oc3ccc(NC(=O)NN4C(=O)CSC4c4c(F)cccc4F)c(Cl)c3)ccnc2cc1OCCCN1CCCC1` (stereo not given), the figures for the pIC50 with A549 and with HT-29 [1] were 6.02 and 6.20, respectively.

With `COc1cc2c(Oc3c(F)cc(NC(=O)NN4C(=O)CSC4c4c(F)cccc4F)cc3F)ccnc2cc1OCCCN1CCCC1` (stereo not given), the pIC50 was 6.25 in the data set with A549, 5.08 in the data set with MDA-MB-231 and 6.64 with HT-29 [1].

In the case of `COc1cc2c(Oc3ccc(NC(=O)NN4C(=O)CSC4c4c(F)cccc4F)c4ccccc34)ccnc2cc1OCCCN1CCCC1` (stereo not given), the pIC50 was 5.63 in the data set with A549 and 5.73 in the data set on HT-29 [1].

For the compound `CCN(CC)CCCOc1cc2nccc(Oc3c(F)cc(NC(=O)NN4C(=O)CSC4c4c(F)cccc4F)cc3F)c2cc1OC` (stereo not given), the pIC50 in the data set with A549 was 6.35; with A549/CDDP it was 6.27; in the data set with FHC, 6.27; in the data set with MCF7, 5.80; with MDA-MB-231, 5.42; in the data set with HT-29 [1], 7.04. In [3], this compound gave a pIC50 of 5.47. In data set [2], the selectivity ratio was determined as 5.9.

Consider `COc1cc2c(Oc3c(F)cc(NC(=O)NN4C(=O)CSC4c4c(F)cccc4F)cc3F)ccnc2cc1OCCCN1CCC(C)CC1` (stereo not given), for which the pIC50 was 6.01 with A549, 5.42 in the data set on MDA-MB-231 and 6.66 in the data set with HT-29 [1].

Regarding `COc1cc2c(Oc3ccc(NC(=O)NN4C(=O)CSC4c4c(F)cccc4F)cc3F)ccnc2cc1OCCCN1CCCC1` (stereo not given), the figures for the pIC50 in the data set with A549, with MDA-MB-231 and in the data set with HT-29 [1] were 6.16, 5.04 and 6.46, respectively.

As to `COc1cc2c(Oc3c(F)cc(NC(=O)NN4C(=O)CSC4c4c(F)cccc4F)cc3F)ccnc2cc1OCCCN1CCC(N2CCCCC2)CC1` (stereo not given), the pIC50 in the data set with A549 is 6.42; in the data set on MDA-MB-231, 5.27; in the data set on HT-29 [1], 6.55.

Turning to `CCN1CCN(CCCCOc2cc3nccc(Oc4c(F)cc(NC(=O)NN5C(=O)CSC5c5c(F)cccc5F)cc4F)c3cc2OC)CC1` (stereo not given), the pIC50 in the data set with A549 is 5.86; with HT-29 [1] it was 6.08.

Take `COc1cc2c(Oc3c(F)cc(NC(=O)NN4C(=O)CCSC4c4c(F)cccc4F)cc3F)ccnc2cc1OCCCN1CCC(C)CC1` (stereo not given): the pIC50 is 5.79 with A549, 5.36 in the data set on MDA-MB-231 and 6.39 in the data set on HT-29 [1].

On to `COc1cc2nccc(Oc3ccc(NC(=O)C4(C(=O)Nc5ccc(F)cc5)CC4)cc3)c2cc1OC` [CABOZANTINIB], for which the pIC50 was 5.02 in the data set with A549; 4.71 in the data set on A549/CDDP; 5.36 with FHC; 5.07 in the data set on MCF7; 4.87 in the data set on MDA-MB-231; 4.94 in the data set with HT-29 [1]. Further, in [3], the pIC50 is less than 4.30. For the same compound, the Activity is on record as 10.9% in the data set with HT-29 [4] and 78.4% with HT-29 [8]. Besides, the outcome in the data set with HT-29 [5], with HT-29 [6], in the data set with HT-29 [7] and with HT-29 [9] was Active.

In the case of `COc1cc2c(Oc3ccc(NC(=O)NN4C(=O)CSC4c4c(F)cccc4F)cc3Cl)ccnc2cc1OCCCN1CCCC1` (stereo not given), the pIC50 is 6.06 in the data set on A549 and 6.32 in the data set with HT-29 [1].

With `COc1cc2c(Oc3c(F)cc(NC(=S)NN4C(=O)CSC4c4c(F)cccc4F)cc3F)ccnc2cc1OCCCN1CCCC1` (stereo not given), the results for the pIC50 in the data set on A549, in the data set on MDA-MB-231 and in the data set on HT-29 [1] were 6.16, 5.09 and 6.39, respectively.

Take `COc1cc2c(Oc3c(F)cc(NC(=O)NN4C(=O)C(C)SC4c4c(F)cccc4F)cc3F)ccnc2cc1OCCCN1CCCC1` (stereo not given): the pIC50 with A549 is 6.08; in the data set with HT-29 [1] it was 6.17.

Take `COc1cc2c(Oc3c(F)cc(NC(=O)NN4C(=O)CSC4c4c(F)cccc4F)cc3F)ccnc2cc1OCCN1CCC(N2CCCCC2)CC1` (stereo not given): the pIC50 was 5.62 in the data set with A549 and 6.31 in the data set with HT-29 [1].

As for `COc1cc2c(Oc3c(F)cc(NC(=O)NN4C(=O)CSC4c4c(F)cccc4F)cc3F)ccnc2cc1OCCCN1CCN(C)CC1` (stereo not given), the values for the pIC50 in the data set on A549, with MDA-MB-231 and with HT-29 [1] were 6.29, 5.36 and 6.82, respectively.

On to `COc1cc2c(Oc3c(F)cc(NC(=O)NN4C(=O)CCSC4c4c(F)cccc4F)cc3F)ccnc2cc1OCCCN1C[C@H]2CCCC[C@H]2C1` (stereo not given in full), for which the pIC50 was 5.44 in the data set with A549 and 6.10 in the data set with HT-29 [1].

Turning to `COc1cc2c(Oc3c(F)cc(NC(=O)NN4C(=O)CCSC4c4c(F)cccc4F)cc3F)ccnc2cc1OCCCN1CCCC1` (stereo not given), the pIC50 with A549 was 6.40; with MDA-MB-231, 5.02; with HT-29 [1] it was 6.57.

The values above are taken from ChEMBL document CHEMBL4330059, “Discovery of N1-(4-((7-(3-(4-ethylpiperazin-1-yl)propoxy)-6-methoxyquinolin-4-yl)oxy)-3,5-difluorophenyl)-N3-(2-(2,6-difluorophenyl)-4-oxothiazolidin-3-yl)urea as a multi-tyrosine kinase inhibitor for drug-sensitive and drug-resistant cancers treatment” (Eur J Med Chem, 2019).
